The record followed here is BindingDB's records for doi:10.1016/S0960-894X(00)80696-4 (1993).

Structures are written as SMILES. Square brackets hold non-standard residues; d marks the D form. Peptide text beside a SMILES is read from it. Cha = N[C@@H](CC1CCCCC1)C(=O)O; Ahx = NCCCCCC(=O)O

As a reminder, the IC50 is the concentration that gives 50% inhibition. A higher IC50 goes with weaker potency in that assay.

This assay has as its target Neuropeptide Y receptor type 2 (Oryctolagus cuniculus). Description: Compound was evaluated for its inhibitory activity against Y2 receptor of rabbit kidney membrane.
In turn, `CC[C@H](C)[C@H](NC(=O)[C@H](Cc1ccc(O)cc1)NC(=O)[C@H](Cc1c[nH]cn1)NC(=O)[C@H](CCCN=C(N)N)NC(C)=O)C(=O)N[C@@H](CC(N)=O)C(=O)N[C@@H](CC1CCCCC1)C(=O)N[C@@H](CC1CCCCC1)C(=O)N[C@H](C(=O)N[C@@H](CCCN=C(N)N)C(=O)N[C@@H](CCC(N)=O)C(=O)N[C@@H](CCCN=C(N)N)C(=O)N[C@@H](Cc1ccc(O)cc1)C(=O)O)[C@@H](C)O` [Ac-RHYIN-(Cha)-(Cha)-TRQRY] (Ac-RHYIN[Cha][Cha]TRQRY-OH) displayed an IC50 of 8 nM. As for `CC[C@H](C)[C@H](NC(=O)[C@H](Cc1ccc(O)cc1)NC(=O)[C@H](Cc1c[nH]cn1)NC(=O)[C@H](CCCN=C(N)N)NC(C)=O)C(=O)N[C@@H](CC(N)=O)C(=O)N[C@@H](CC1CCCCC1)C(=O)N[C@H](C(=O)N[C@H](C(=O)N[C@@H](CCCN=C(N)N)C(=O)N[C@@H](CCC(N)=O)C(=O)N[C@@H](CCCN=C(N)N)C(=O)N[C@@H](Cc1ccc(O)cc1)C(=O)O)[C@@H](C)O)[C@@H](C)CC` [Ac-RHYIN-(Cha)-ITRQRY] (Ac-RHYIN[Cha]ITRQRY-OH), the figure is 16 nM; as for `CC[C@H](C)[C@H](NC(=O)[C@H](Cc1ccc(O)cc1)NC(=O)[C@H](Cc1cnc[nH]1)NC(=O)[C@H](CCCNC(=N)N)NC(=O)CCCCCNC(=O)[C@H](CCCCN)NC(=O)[C@H](CO)NC(=O)[C@@H]1CCCN1C(=O)[C@@H](N)Cc1ccc(O)cc1)C(=O)N[C@@H](CC(N)=O)C(=O)N[C@@H](CC(C)C)C(=O)N[C@H](C(=O)N[C@H](C(=O)N[C@@H](CCCNC(=N)N)C(=O)N[C@@H](CCC(N)=O)C(=O)N[C@@H](CCCNC(=N)N)C(=O)N[C@@H](Cc1ccc(O)cc1)C(N)=O)[C@@H](C)O)[C@@H](C)CC` [Neuropeptide Y analogue] (H-YPSK[Ahx]RHYINLITRQRY-NH2), 180 nM.
